Reference: ChEMBL document CHEMBL1201862, “PubChem BioAssay data set” (2004)
Activity calls are given as the source filed them.

What was measured:
[1] = biological target: T1, Short transient receptor potential channel 4 (Mus musculus, UniProt Q9QUQ5); assay: block of DAMGO-driven TRPC4 calcium entry – cell-based, HEK293 TRPC4/mu-opioid, Fluo-4 calcium, dose response (AID 434942); type: functional;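 note: potency of inhibitors blocking the TRPC4 calcium response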
T1 sequence (Q9QUQ5 whole entry): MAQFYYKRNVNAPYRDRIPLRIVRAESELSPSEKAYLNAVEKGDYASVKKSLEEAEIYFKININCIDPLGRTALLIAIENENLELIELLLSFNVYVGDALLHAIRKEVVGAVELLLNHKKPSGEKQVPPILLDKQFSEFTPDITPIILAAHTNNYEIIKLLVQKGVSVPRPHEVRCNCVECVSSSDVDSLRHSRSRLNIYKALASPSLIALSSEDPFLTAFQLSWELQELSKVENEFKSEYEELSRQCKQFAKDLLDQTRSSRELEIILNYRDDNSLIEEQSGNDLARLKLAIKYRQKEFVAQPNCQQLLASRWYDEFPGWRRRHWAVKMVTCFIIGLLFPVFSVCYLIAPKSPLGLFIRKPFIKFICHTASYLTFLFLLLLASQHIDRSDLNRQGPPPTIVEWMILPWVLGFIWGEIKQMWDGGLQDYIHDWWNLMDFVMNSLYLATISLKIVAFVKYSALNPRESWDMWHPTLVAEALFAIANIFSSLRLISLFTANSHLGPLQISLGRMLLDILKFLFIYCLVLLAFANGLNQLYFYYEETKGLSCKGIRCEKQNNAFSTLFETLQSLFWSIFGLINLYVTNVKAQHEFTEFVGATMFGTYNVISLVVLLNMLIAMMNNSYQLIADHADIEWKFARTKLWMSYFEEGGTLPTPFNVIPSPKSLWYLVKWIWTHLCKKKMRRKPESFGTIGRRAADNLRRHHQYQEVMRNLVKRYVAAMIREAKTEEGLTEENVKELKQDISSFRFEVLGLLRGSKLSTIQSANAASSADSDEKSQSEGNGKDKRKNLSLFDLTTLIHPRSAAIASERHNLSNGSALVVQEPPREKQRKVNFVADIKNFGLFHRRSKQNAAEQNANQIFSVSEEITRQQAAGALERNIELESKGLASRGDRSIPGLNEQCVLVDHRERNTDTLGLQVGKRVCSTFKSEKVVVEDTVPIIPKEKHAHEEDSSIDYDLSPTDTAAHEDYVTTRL

Cytochrome P450 3A4 = Cytochrome P450 3A4 (Homo sapiens, UniProt P08684); settings: Potency;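 note: confirmatory qHTS run detecting inhibitors and substrates of CYP3A4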
Paired box protein Pax-8 = Paired box protein Pax-8 (Homo sapiens, UniProt Q06710); assay: PAX8 transcriptional activity inhibition in RMG-I – RMG-I cells, luciferase, cherry-pick, dose response (AID 687027); type: functional, cell-based;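 note: luciferase reporter driven by Pax8 target thyroperoxidase promoter measured by SteadyGlo luminescence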
[2] = OVCAR-3 cell viability loss – plate reader, dry powder samples, PAX8 inhibitor project, dose response (AID 743044); type: functional, cell-based
[3] = OVCAR8 cell viability loss – plate reader, dry powder samples, PAX8 project, dose response (AID 743197); type: functional, cell-based; settings: OVCAR-8
[4] = Trypanosoma cruzi growth suppression in host cells – NIH3T3 host cells, beta-gal luminescence, confirmation (AID 2044); type: functional, cell-based;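 note: intracellular parasites grown in NIH/3T3 mouse fibroblasts as host cells; luminescent beta-galactosidase reporter signal from transgenic T. cruzi replicating inside host cells; inhibitors lower the luminescence signal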
[5] = biological target: T2, High affinity choline transporter 1 (Homo sapiens, UniProt Q9GZV3); assay: human choline transporter blockers, potency – cell-based, 5-point CRC, membrane potential dye, dose response (AID 504840); type: functional
T2 sequence (Q9GZV3 whole entry): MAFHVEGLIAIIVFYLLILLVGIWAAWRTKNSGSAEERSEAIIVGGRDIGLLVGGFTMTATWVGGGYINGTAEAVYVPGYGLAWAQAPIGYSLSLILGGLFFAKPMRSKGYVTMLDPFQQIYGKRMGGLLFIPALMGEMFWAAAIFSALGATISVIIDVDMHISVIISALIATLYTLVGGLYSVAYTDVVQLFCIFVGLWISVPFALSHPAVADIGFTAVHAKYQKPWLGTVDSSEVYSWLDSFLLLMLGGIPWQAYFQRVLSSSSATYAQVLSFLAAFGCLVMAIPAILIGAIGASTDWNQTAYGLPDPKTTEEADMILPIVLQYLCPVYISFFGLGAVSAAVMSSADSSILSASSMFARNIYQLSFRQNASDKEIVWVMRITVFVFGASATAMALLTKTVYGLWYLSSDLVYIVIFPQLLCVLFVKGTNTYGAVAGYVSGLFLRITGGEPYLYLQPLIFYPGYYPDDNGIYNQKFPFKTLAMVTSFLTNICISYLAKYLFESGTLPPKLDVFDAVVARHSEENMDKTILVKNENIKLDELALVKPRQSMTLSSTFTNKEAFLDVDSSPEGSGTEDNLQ

[6] = NIH3T3 cell viability loss – ATP luminescence, mouse fibroblasts, counter-screen, dose response (AID 2010); type: functional, cell-based;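 note: cells exposed to compound for about 90 hours before reading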
[7] = NIH-3T3 fibroblast cytotoxicity, dose response, cytotoxicity control, cell-based, fluorescence, Alamar Blue, secondary assay (AID 2327); type: functional;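 note: NIH-3T3 mouse fibroblasts cultured with fluconazole at 8 µg/mL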
[8] = biological target: T3, Carboxy-terminal domain RNA polymerase II polypeptide A small phosphatase 1 (Homo sapiens, UniProt Q9GZU7); assay: CTDSP1 inhibitors, concentration-response, biochemical, absorbance readout, ultra-high-throughput screen actives (AID 540297); type: functional
T3 sequence (Q9GZU7 whole entry): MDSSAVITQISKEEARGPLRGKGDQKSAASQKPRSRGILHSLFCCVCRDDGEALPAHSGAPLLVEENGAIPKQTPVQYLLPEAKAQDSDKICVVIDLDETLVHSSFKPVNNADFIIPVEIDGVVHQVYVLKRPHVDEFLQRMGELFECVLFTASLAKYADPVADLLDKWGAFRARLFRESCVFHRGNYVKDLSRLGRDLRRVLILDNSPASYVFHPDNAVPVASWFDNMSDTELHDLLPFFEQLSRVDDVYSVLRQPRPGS

[9] = fluconazole-exposed Candida albicans growth modulators – fluorescence, retest, confirmation (AID 2467); type: functional, cell-based
Streptococcus = assay: GAS UMAA2166 growth inhibition – luminescence, BacTiterGlo, counter-screen for streptokinase expression inhibitor project, dose response (AID 1915); type: functional, organism-based;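 note: potency for reduction of bacterial viability or growth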
[10] = test system: Streptococcus sp. 'group A'; assay: Streptococcus pyogenes SK(-)GAS viability under kanamycin – luminescence, BacTiterGlo, confirmation, counter-screen for streptokinase expression inhibitor project, dose response (AID 1900); type: functional, organism-based
Streptokinase A = biological target: T4, Streptokinase A (Streptococcus pyogenes serotype M1, UniProt P10520); assay: viability-normalized secreted streptokinase activity reduction – plasminogen activation absorbance, OD405, dose response (AID 1914); type: functional, Streptococcus pyogenes M1 GAS;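 note: secreted streptokinase activity via plasminogen activation per viability signal from cell pellet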
T4 sequence (P10520 whole entry): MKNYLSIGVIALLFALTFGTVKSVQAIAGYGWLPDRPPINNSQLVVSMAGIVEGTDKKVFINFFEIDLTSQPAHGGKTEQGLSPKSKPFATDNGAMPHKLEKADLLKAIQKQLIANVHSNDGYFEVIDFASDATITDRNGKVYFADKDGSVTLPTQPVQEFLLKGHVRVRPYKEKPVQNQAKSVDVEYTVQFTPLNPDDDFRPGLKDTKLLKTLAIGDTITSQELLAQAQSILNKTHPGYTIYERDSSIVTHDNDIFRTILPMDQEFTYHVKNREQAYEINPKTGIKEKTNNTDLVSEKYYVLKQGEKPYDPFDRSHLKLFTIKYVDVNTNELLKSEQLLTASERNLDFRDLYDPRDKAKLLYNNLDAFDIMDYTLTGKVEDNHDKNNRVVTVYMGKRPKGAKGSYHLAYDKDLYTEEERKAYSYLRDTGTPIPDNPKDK

BJ [11] = assay: BJ-TERT-LT-ST fibroblast viability loss – cell-based, RAS-independent, luminescence, dose response (AID 1935); type: functional; settings: Homo sapiens;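 note: BJ fibroblasts immortalized with TERT plus LT and ST oncogenes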
BJ [12] = assay: cells; type: functional, cell-based; settings: Homo sapiens
[13] = alpha-synuclein stem-loop luciferase translation blockers – H4 neuroglioma cells, luminescence, confirmation (AID 1988); type: functional, cell-based
[14] = luciferase reporter signal suppression in cells – H4 neuroglioma cells, luminescence, dose response (AID 1990); type: functional, cell-based
BJ [15] = assay: BJ-TERT fibroblast viability loss – cell-based, RAS-independent, luminescence, dose response (AID 1933); type: functional; settings: Homo sapiens
[16] = DRD fibroblast viability loss – cell-based, non-viral oncogenic, luminescence, dose response (AID 1934); type: functional; settings: Homo sapiens
[17] = Luminescence Cell-Based Dose Response HTS to Identify Inhibitors of 5'UTR Stem-Loop Driven Prion Protein mRNA Translation in H4 Neuroglioblastoma Cells. [Related pubchem assays: 1827 (Project Summary), 1813 (Primary HTS)]; type: functional
Nonstructural protein 1 = Nonstructural protein 1 (Influenza A virus, UniProt Q194T2); type: functional, Influenza A virus (A/California/07/2009(H1N1))
Sequence of Nonstructural protein 1 (Q194T2 whole entry): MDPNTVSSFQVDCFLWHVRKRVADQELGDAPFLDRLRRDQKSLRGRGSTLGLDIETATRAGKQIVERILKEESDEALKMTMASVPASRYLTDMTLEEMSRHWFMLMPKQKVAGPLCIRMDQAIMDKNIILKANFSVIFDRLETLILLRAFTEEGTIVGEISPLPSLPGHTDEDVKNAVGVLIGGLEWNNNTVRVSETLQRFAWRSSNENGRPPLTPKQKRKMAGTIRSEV

Sequence of Paired box protein Pax-8 (Q06710 whole entry): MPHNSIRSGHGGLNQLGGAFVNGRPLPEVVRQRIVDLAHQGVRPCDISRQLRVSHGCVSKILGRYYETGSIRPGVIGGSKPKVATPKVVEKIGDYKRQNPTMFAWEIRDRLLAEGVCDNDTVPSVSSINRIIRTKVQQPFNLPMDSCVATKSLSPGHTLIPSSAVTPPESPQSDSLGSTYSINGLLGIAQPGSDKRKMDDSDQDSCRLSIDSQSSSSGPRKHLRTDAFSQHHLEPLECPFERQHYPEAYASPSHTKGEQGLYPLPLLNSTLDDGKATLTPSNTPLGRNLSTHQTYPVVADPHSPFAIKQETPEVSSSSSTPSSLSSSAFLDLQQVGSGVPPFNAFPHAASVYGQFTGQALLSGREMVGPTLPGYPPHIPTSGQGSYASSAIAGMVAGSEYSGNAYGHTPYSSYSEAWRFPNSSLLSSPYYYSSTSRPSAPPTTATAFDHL
Sequence of Cytochrome P450 3A4 (P08684 whole entry): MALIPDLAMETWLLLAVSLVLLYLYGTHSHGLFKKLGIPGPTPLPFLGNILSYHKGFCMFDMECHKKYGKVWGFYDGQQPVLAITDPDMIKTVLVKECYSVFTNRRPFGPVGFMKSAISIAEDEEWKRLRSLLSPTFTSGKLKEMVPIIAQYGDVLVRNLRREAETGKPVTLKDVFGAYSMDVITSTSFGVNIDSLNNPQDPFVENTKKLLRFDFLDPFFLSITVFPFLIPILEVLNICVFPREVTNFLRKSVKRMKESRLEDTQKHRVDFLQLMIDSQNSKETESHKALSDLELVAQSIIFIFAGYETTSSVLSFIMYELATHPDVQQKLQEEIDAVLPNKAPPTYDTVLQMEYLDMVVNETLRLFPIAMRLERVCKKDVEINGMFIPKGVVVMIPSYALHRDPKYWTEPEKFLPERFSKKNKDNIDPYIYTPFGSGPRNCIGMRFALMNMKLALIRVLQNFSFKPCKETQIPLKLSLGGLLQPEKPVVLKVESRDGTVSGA

## CCC1C=C(c2ccccc2)C=CN=C1N(CC)CC (stereo not drawn)
[1]
  EC50: 4.22 µM (active)

## Cc1cc(C(=O)N/N=C\c2cc(C(C)(C)C)ccc2O)[nH]n1
[1]
  EC50: 6.68 µM (active)

## O=C(O)c1sccc1S(=O)(=O)Nc1ccc(Cl)cc1
Cytochrome P450 3A4
  AC50: 7.94 µM (inconclusive)

## C[C@@H]1CN([C@H](C)CO)C(=O)c2cccc(NC(=O)Nc3cccc4ccccc34)c2O[C@@H]1CN(C)S(=O)(=O)c1ccc(Cl)cc1
Paired box protein Pax-8
  AC50: 5.69 µM (active)
[2]
  AC50: 43.3 µM (active)
[3]
  AC50: 56.3 µM (active)

## CN(/N=C/c1ccc([N+](=O)[O-])o1)c1ccccc1
[4]
  EC50: 0.665 µM (active)
[5]
  IC50: 12.9 µM (active)
[6]
  EC50: > 60 µM (not active)

## C[C@H](CO)N1C[C@H](C)[C@H](CN(C)Cc2ccc(C(F)(F)F)cc2)OCCCC[C@H](C)Oc2ccc(NC(=O)NC3CCCCC3)cc2C1=O
Paired box protein Pax-8
  AC50: 10.1 µM (active)
[2]
  AC50: 41.6 µM (active)
[3]
  AC50: 41.7 µM (active)

## O=C(O)CCCCCN1C(=O)/C(=C/c2nc3ccccc3[nH]2)SC1=S
[7]
  EC50: > 150 µM (inactive)
[8]
  IC50: 6.09 µM (active)
[9]
  EC50: 5.71 µM (active)

## Cc1ccc(-c2csc(C3=C(N)N(NC(=O)c4ccco4)CC3=O)n2)cc1
[8]
  IC50: 12.9 µM (active)

## CCOc1ccc(Cl)cc1/C=N/O
[1]
  EC50: 4.22 µM (active)

## C/C(=N\NC(=O)c1cc(Br)ccc1O)c1cccc(NC(=O)c2ccccc2F)c1
Streptococcus
  EC50: 74 µM (active)
[8]
  IC50: 2.94 µM (active)
[10]
  EC50: 3.04 µM (active)
Streptokinase A
  EC50: > 150 µM (not active)

## O=C(NC(=S)NNC(=O)c1cnccn1)c1ccc(Cl)cc1
BJ [11]
  EC50: > 150 µM (not active)
BJ [12]
  EC50: > 150 µM (not active)
[7]
  EC50: 5.78 µM (active)
[13]
  EC50: 9.3 µM (active)
[14]
  EC50: 11.9 µM (active)
BJ [15]
  EC50: 22.8 µM (active)
[16]
  EC50: 25.5 µM (active)
[17]
  EC50: 9.78 µM (active)
[9]
  EC50: 1.69 µM (active)
Nonstructural protein 1
  IC50: 3.01 µM (active)

## Cc1c(CCC(=O)O)c(=O)oc2cc(OCc3ccccc3Br)ccc12
[8]
  IC50: 10.6 µM (active)

## COc1cccc(NC(=O)CCC(=O)N2CC(C)Oc3ccc(C)cc32)c1 (stereo not drawn)
[1]
  EC50: 0.531 µM (active)

## Nc1c(C(=O)OC2CCCCC2)c2nc3ccccc3nc2n1CC1CCCO1 (stereo not drawn)
[5]
  IC50: 13.2 µM (active)

## CC(C)c1nc(CNC(=O)CC2C(=O)NCCN2Cc2ccc(F)cc2Cl)cs1 (stereo not drawn)
[1]
  EC50: 1.88 µM (active)

## CC(=O)NNc1ccccc1
Cytochrome P450 3A4
  AC50: 31.6 µM (inconclusive)

## C[C@H](CO)N1C[C@H](C)[C@H](CN(C)Cc2ccc(C(F)(F)F)cc2)OCCCC[C@H](C)Oc2ccc(NS(=O)(=O)c3ccc(F)cc3)cc2C1=O
Paired box protein Pax-8
  AC50: 7.71 µM (active)
[2]
  AC50: 53.3 µM (active)
[3]
  AC50: 58.2 µM (active)

## CC(=O)N1[C@H](C)C=C[C@]1(Cc1ccccc1)C(=O)NCc1ccccn1
Cytochrome P450 3A4
  AC50: 12.6 µM (inconclusive)

## COc1cc2cc(Oc3ccc4ccc(=O)oc4c3)c(=O)oc2cc1O [DAPHNORETIN]
Cytochrome P450 3A4
  AC50: 0.501 µM (inconclusive)

## COc1ccc2c3c([nH]c2c1)[C@H](CO)N(C(=O)Nc1cccc(F)c1)CC31CCN(S(=O)(=O)c2cccc(C)c2)CC1
Paired box protein Pax-8
  AC50: 5.2 µM (active)
[2]
  AC50: 42.4 µM (active)
[3]
  AC50: > 70 µM (inactive)

## CC(NC(=O)c1cccc(OC2CCN(C(=O)C3CC3)CC2)c1)c1ccc(F)cc1 (stereo not drawn)
[5]
  IC50: 17.4 µM (active)

## O=C(CSc1nnc(COc2ccccc2)n1Cc1ccco1)NCc1ccco1
[8]
  IC50: 7.21 µM (active)

## COC(=O)[C@@H]1C[C@@]2(O)[C@@H](O)[C@@H](O)[C@@H](O)C[C@H]2N1Cc1cc(F)ccc1F
Cytochrome P450 3A4
  AC50: 25.1 µM (inconclusive)

## CSCC[C@@H](C(=O)NCCCCCCCCCCC(=O)N1CCN(C(=O)OC(C)(C)C)CC1)n1cc(CCO)nn1
[5]
  IC50: 14.5 µM (active)

## Cc1ccc([N+](=O)[O-])cc1N
Cytochrome P450 3A4
  AC50: 31.6 µM (inconclusive)

## CCC(Oc1ccc2c(c1)C(=O)CC(C)(C)O2)C(=O)NCCN1CCCCCC1 (stereo not drawn)
[5]
  IC50: 15.8 µM (active)

## C[C@@H]1CN([C@H](C)CO)C(=O)c2cc(NC(=O)Nc3ccc(C(F)(F)F)cc3)ccc2O[C@@H](C)CCCCO[C@H]1CN(C)S(=O)(=O)c1ccccc1
Paired box protein Pax-8
  AC50: 2.23 µM (active)
[2]
  AC50: 31.8 µM (active)

## COc1c(CC=C(C)C)c2c(c3oc(=O)c(-c4ccc(O)cc4)c(O)c13)C=CC(C)(C)O2 [SCANDENIN]
Cytochrome P450 3A4
  AC50: 20 µM (inconclusive)
